Assay results published in publication PMC5218480 (PLoS ONE, 2017).

Test system: MV-4-11 cells
Experiment: Gene expression microarray analysis (Affymetrix PrimeView) and GSEA
Type: cell-based, human
Set-up: RFU PODN (11730768_x_at) / Fold change /veh PODN (11730768_x_at) / RFU LINC00158 (11744669_a_at) / Fold change /veh LINC00158 (11744669_a_at) / RFU DUSP10 (11751237_a_at) / Fold change /veh DUSP10 (11751237_a_at) / RFU ID3 (11757404_x_at) / Fold change /veh ID3 (11757404_x_at) / RFU PLEKHG5 (11737974_s_at) / Fold change /veh PLEKHG5 (11737974_s_at) / RFU LRRC4B (11730491_at) / Fold change /veh LRRC4B (11730491_at) / RFU GIMAP4 (11747438_a_at) / Fold change /veh GIMAP4 (11747438_a_at) / RFU KRT8 (11758183_x_at) / Fold change /veh KRT8 (11758183_x_at) / RFU CNN1 (11734310_a_at) / Fold change /veh CNN1 (11734310_a_at) / RFU VPS37D (11726825_at) / Fold change /veh VPS37D (11726825_at) / RFU C10orf10 (11716522_x_at) / Fold change /veh C10orf10 (11716522_x_at) / RFU KIR2DL2 /// KIR2DL4 /// KIR2DL5A /// KIR2DL5B /// KIR2DS1 /// KIR2DS2 /// KIR2DS3 /// KIR2DS4 /// KIR3DL3 /// KIR3DL3 /// KIR3DS1 (11738374_at) / Fold change /veh KIR2DL2 /// KIR2DL4 /// KIR2DL5A /// KIR2DL5B /// KIR2DS1 /// KIR2DS2 /// KIR2DS3 /// KIR2DS4 /// KIR3DL3 /// KIR3DL3 /// KIR3DS1 (11738374_at) / RFU C1QL1 (11718748_at) / Fold change /veh C1QL1 (11718748_at) / RFU TMPRSS4 (11747572_a_at) / Fold change /veh TMPRSS4 (11747572_a_at) / RFU HAMP (11756126_x_at) / Fold change /veh HAMP (11756126_x_at) / RFU RNFT2 (11725882_a_at) / Fold change /veh RNFT2 (11725882_a_at) / RFU NR4A2 (11747474_a_at) / Fold change /veh NR4A2 (11747474_a_at) / RFU ABCC12 (11746883_a_at) / Fold change /veh ABCC12 (11746883_a_at) / RFU TMEM136 (11760407_x_at) / Fold change /veh TMEM136 (11760407_x_at) / RFU CLDN22 /// WWC2 (11732394_at) / Fold change /veh CLDN22 /// WWC2 (11732394_at) / RFU HLA-DPB1 (11760878_x_at) / Fold change /veh HLA-DPB1 (11760878_x_at) / RFU SPINT1 (11716480_a_at) / Fold change /veh SPINT1 (11716480_a_at) / RFU GAP43 (11754022_s_at) / Fold change /veh GAP43 (11754022_s_at) / RFU A4GNT (11735810_at) / Fold change /veh A4GNT (11735810_at) / RFU PRB3 (11715151_x_at) / Fold change /veh PRB3 (11715151_x_at) / RFU TUBB4B (11761932_at) / Fold change /veh TUBB4B (11761932_at) / RFU CAPN14 (11732068_a_at) / Fold change /veh CAPN14 (11732068_a_at) / RFU TMCC2 (11721928_a_at) / Fold change /veh TMCC2 (11721928_a_at) / RFU IRGQ (11745062_a_at) / Fold change /veh IRGQ (11745062_a_at) / RFU FAM174B (11720279_a_at) / Fold change /veh FAM174B (11720279_a_at) / RFU TMPRSS4 (11748680_a_at) / Fold change /veh TMPRSS4 (11748680_a_at) / RFU FAM212B (11763350_a_at) / Fold change /veh FAM212B (11763350_a_at) / RFU PLEKHG5 (11743358_a_at) / Fold change /veh PLEKHG5 (11743358_a_at) / RFU ZSCAN30 (11745921_a_at) / Fold change /veh ZSCAN30 (11745921_a_at) / RFU CMKLR1 (11741424_a_at) / Fold change /veh CMKLR1 (11741424_a_at) / RFU LOC101060620 /// MAPK8IP1 (11723275_at) / Fold change /veh LOC101060620 /// MAPK8IP1 (11723275_at) / RFU SPTSSB (11747773_x_at) / Fold change /veh SPTSSB (11747773_x_at) / RFU PRSS12 (11739890_at) / Fold change /veh PRSS12 (11739890_at) / RFU BIN1 (11741810_x_at) / Fold change /veh BIN1 (11741810_x_at) / RFU WNT11 (11732464_a_at) / Fold change /veh WNT11 (11732464_a_at) / RFU C10orf10 (11716521_a_at) / Fold change /veh C10orf10 (11716521_a_at) / RFU C5orf56 (11738089_at) / Fold change /veh C5orf56 (11738089_at) / RFU CYB561 (11721691_x_at) / Fold change /veh CYB561 (11721691_x_at) / RFU ANKRD19P (11752326_a_at) / Fold change /veh ANKRD19P (11752326_a_at) / RFU OR2T12 /// OR2T33 /// OR2T8 (11738714_s_at) / Fold change /veh OR2T12 /// OR2T33 /// OR2T8 (11738714_s_at) / RFU VCAN (11748164_a_at) / Fold change /veh VCAN (11748164_a_at) / RFU JSRP1 (11732532_at) / Fold change /veh JSRP1 (11732532_at) / RFU KRTAP10-11 (11738290_x_at) / Fold change /veh KRTAP10-11 (11738290_x_at) / RFU MYO3A (11730013_a_at) / Fold change /veh MYO3A (11730013_a_at) / RFU EBF3 (11725865_a_at) / Fold change /veh EBF3 (11725865_a_at) / RFU CAMK2N1 (11719241_x_at) / Fold change /veh CAMK2N1 (11719241_x_at) / RFU C5orf56 (11738088_a_at) / Fold change /veh C5orf56 (11738088_a_at) / RFU OLFML3 (11715873_a_at) / Fold change /veh OLFML3 (11715873_a_at) / RFU LOC100653217 /// NTM (11731650_a_at) / Fold change /veh LOC100653217 /// NTM (11731650_a_at) / RFU MAPK11 (11762145_a_at) / Fold change /veh MAPK11 (11762145_a_at) / RFU FIZ1 (11724087_x_at) / Fold change /veh FIZ1 (11724087_x_at) / RFU OASL (11726364_x_at) / Fold change /veh OASL (11726364_x_at) / RFU SOX15 (11748057_x_at) / Fold change /veh SOX15 (11748057_x_at) / RFU CD79A (11719716_a_at) / Fold change /veh CD79A (11719716_a_at) / RFU HIST1H1D (11736915_at) / Fold change /veh HIST1H1D (11736915_at) / RFU CASKIN2 (11723855_a_at) / Fold change /veh CASKIN2 (11723855_a_at) / RFU LOC730098 (11760151_x_at) / Fold change /veh LOC730098 (11760151_x_at) / RFU OR4N2 (11742367_at) / Fold change /veh OR4N2 (11742367_at) / RFU PRRT2 (11749266_a_at) / Fold change /veh PRRT2 (11749266_a_at) / RFU SNX32 (11753110_a_at) / Fold change /veh SNX32 (11753110_a_at) / RFU CDHR5 (11726645_a_at) / Fold change /veh CDHR5 (11726645_a_at) / RFU RCAN1 (11760418_a_at) / Fold change /veh RCAN1 (11760418_a_at) / RFU FAM167A (11723789_a_at) / Fold change /veh FAM167A (11723789_a_at) / RFU FAM26E (11764081_at) / Fold change /veh FAM26E (11764081_at) / RFU ISYNA1 (11749810_s_at) / Fold change /veh ISYNA1 (11749810_s_at) / RFU ACY1 (11761880_at) / Fold change /veh ACY1 (11761880_at) / RFU 11764098_at / Fold change /veh 11764098_at / RFU SAMD14 (11745864_x_at) / Fold change /veh SAMD14 (11745864_x_at) / RFU NPB (11741838_a_at) / Fold change /veh NPB (11741838_a_at) / RFU TMPRSS6 (11731388_a_at) / Fold change /veh TMPRSS6 (11731388_a_at) / RFU KRTAP10-2 (11738614_at) / Fold change /veh KRTAP10-2 (11738614_at) / RFU ARHGAP8 /// PRR5-ARHGAP8 (11727945_x_at) / Fold change /veh ARHGAP8 /// PRR5-ARHGAP8 (11727945_x_at) / RFU KRTAP5-7 /// NADSYN1 (11734609_at) / Fold change /veh KRTAP5-7 /// NADSYN1 (11734609_at) / RFU RASL12 (11751679_a_at) / Fold change /veh RASL12 (11751679_a_at) / RFU CDKN2B (11736163_a_at) / Fold change /veh CDKN2B (11736163_a_at) / RFU PRF1 (11729649_at) / Fold change /veh PRF1 (11729649_at) / RFU, ZNF638 /// ZNF638-IT1 / Fold change vs veh, ZNF638 /// ZNF638-IT1 / RFU, PANK3 / Fold change vs veh, PANK3 / RFU, SH3YL1 / Fold change vs veh, SH3YL1 / RFU, ZEB2 / Fold change vs veh, ZEB2 / RFU, NRIP1 / Fold change vs veh, NRIP1 / RFU, PTTG1IP / Fold change vs veh, PTTG1IP / RFU, CAPN2 / Fold change vs veh, CAPN2 / RFU, MED14 / Fold change vs veh, MED14 / RFU, SNORA58 / Fold change vs veh, SNORA58 / RFU, C1orf63 / Fold change vs veh, C1orf63 / RFU, LRRFIP1 / Fold change vs veh, LRRFIP1 / RFU, NDUFAF7 / Fold change vs veh, NDUFAF7 / RFU, SLC12A2 / Fold change vs veh, SLC12A2 / RFU, IBTK / Fold change vs veh, IBTK / RFU, ESF1 / Fold change vs veh, ESF1 / Fold change vs veh, TMEM50B / RFU, TAOK1 / Fold change vs veh, TAOK1 / RFU, ACBD3 / Fold change vs veh, ACBD3 / RFU, TMA16 / Fold change vs veh, TMA16 / RFU, RWDD3 / Fold change vs veh, RWDD3 / RFU, BCAT1 / Fold change vs veh, BCAT1 / RFU, EDEM3 / Fold change vs veh, EDEM3 / RFU, TMEM33 / Fold change vs veh, TMEM33 / RFU, WDR75 / Fold change vs veh, WDR75 / RFU, AHCTF1 / Fold change vs veh, AHCTF1 / RFU, TFRC / Fold change vs veh, TFRC / RFU, ZDHHC17 / Fold change vs veh, ZDHHC17 / RFU, NOM1 / Fold change vs veh, NOM1 / RFU, ARL8B / Fold change vs veh, ARL8B / RFU, ZBTB11 / Fold change vs veh, ZBTB11 / RFU, TAMM41 / Fold change vs veh, TAMM41 / RFU, KIAA1704 /// LOC100996395 / Fold change vs veh, KIAA1704 /// LOC100996395 / RFU, ING1 / Fold change vs veh, ING1 / RFU, TRMT61B / Fold change vs veh, TRMT61B / RFU, FUBP3 / Fold change vs veh, FUBP3 / RFU, TP53 / Fold change vs veh, TP53 / RFU, TNKS2 / Fold change vs veh, TNKS2 / RFU, ZFP14 / Fold change vs veh, ZFP14 / RFU, ACTR2 / Fold change vs veh, ACTR2 / RFU, PPP3R1 / Fold change vs veh, PPP3R1 / RFU, PIK3R1 / Fold change vs veh, PIK3R1 / RFU, HNRNPA1 / Fold change vs veh, HNRNPA1 / RFU, RNF170 / Fold change vs veh, RNF170 / RFU, ZNF28 / Fold change vs veh, ZNF28 / RFU, RNGTT / Fold change vs veh, RNGTT / RFU, OGT / Fold change vs veh, OGT / RFU, BRD1 / Fold change vs veh, BRD1 / RFU, MARS / Fold change vs veh, MARS / RFU, ZNF655 / Fold change vs veh, ZNF655 / RFU, FAHD1 / Fold change vs veh, FAHD1 / RFU, BDP1 / Fold change vs veh, BDP1 / RFU, LRRCC1 / Fold change vs veh, LRRCC1 / RFU, ARID1A / Fold change vs veh, ARID1A / RFU, ZNF146 / Fold change vs veh, ZNF146 / RFU, ZNF330 / Fold change vs veh, ZNF330 / RFU, GPN3 / Fold change vs veh, GPN3 / RFU, C9orf123 / Fold change vs veh, C9orf123 / RFU, N4BP2L2 / Fold change vs veh, N4BP2L2 / RFU, ARFIP1 / Fold change vs veh, ARFIP1 / RFU, FAM179B / Fold change vs veh, FAM179B / RFU, BCL10 / Fold change vs veh, BCL10 / RFU, UHRF1BP1L / Fold change vs veh, UHRF1BP1L / RFU, BET1 / Fold change vs veh, BET1 / RFU, CNOT2 / Fold change vs veh, CNOT2 / RFU, ZNF268 / Fold change vs veh, ZNF268 / Fold change vs veh, ZNF507 / RFU, DGCR2 / Fold change vs veh, DGCR2 / RFU, WDSUB1 / Fold change vs veh, WDSUB1 / Fold change vs veh, HSP90B1 /// MIR3652 / RFU, ADSS / Fold change vs veh, ADSS / RFU, GK / Fold change vs veh, GK / RFU, ZNF148 / Fold change vs veh, ZNF148 / RFU, TAF9 / Fold change vs veh, TAF9 / RFU, SLC1A5 / Fold change vs veh, SLC1A5 / RFU, SLMO2 / Fold change vs veh, SLMO2 / RFU, ABCC4 / Fold change vs veh, ABCC4 / RFU, LOC101060439 /// RAP1B / Fold change vs veh, LOC101060439 /// RAP1B / RFU, RFX7 / Fold change vs veh, RFX7 / RFU, GTPBP10 / Fold change vs veh, GTPBP10 / RFU, CNEP1R1 / Fold change vs veh, CNEP1R1 / RFU, BIVM-ERCC5 /// ERCC5 / Fold change vs veh, BIVM-ERCC5 /// ERCC5 / RFU, ILF3 / Fold change vs veh, ILF3 / RFU 11762660_at / Fold change /veh 11762660_at / RFU VCAN (11757783_s_at) / Fold change /veh VCAN (11757783_s_at) / RFU DDX43 (11728927_at) / Fold change /veh DDX43 (11728927_at) / RFU KRT8 (11758188_x_at) / Fold change /veh KRT8 (11758188_x_at) / RFU NKD1 (11759106_at) / Fold change /veh NKD1 (11759106_at) / RFU SRD5A1 (11742802_a_at) / Fold change /veh SRD5A1 (11742802_a_at) / RFU TPSAB1 /// TPSB2 (11721975_s_at) / Fold change /veh TPSAB1 /// TPSB2 (11721975_s_at) / RFU GSTM3 (11746129_a_at) / Fold change /veh GSTM3 (11746129_a_at) / RFU IL23R (11737362_x_at) / Fold change /veh IL23R (11737362_x_at) / RFU TMEM51 (11727254_a_at) / Fold change /veh TMEM51 (11727254_a_at) / RFU PIWIL2 (11732686_x_at) / Fold change /veh PIWIL2 (11732686_x_at) / RFU ORM1 (11744905_x_at) / Fold change /veh ORM1 (11744905_x_at) / RFU CCDC152 (11743942_at) / Fold change /veh CCDC152 (11743942_at) / RFU ECM1 (11717891_a_at) / Fold change /veh ECM1 (11717891_a_at) / RFU IL23R (11748794_a_at) / Fold change /veh IL23R (11748794_a_at) / RFU TNFAIP8L3 (11732012_x_at) / Fold change /veh TNFAIP8L3 (11732012_x_at) / RFU MBOAT4 (11741988_at) / Fold change /veh MBOAT4 (11741988_at) / RFU 11764193_at / Fold change /veh 11764193_at / RFU TMEM53 (11763286_at) / Fold change /veh TMEM53 (11763286_at) / RFU MAGEB2 (11727129_at) / Fold change /veh MAGEB2 (11727129_at) / RFU TMEM200A (11744735_a_at) / Fold change /veh TMEM200A (11744735_a_at) / RFU CCDC152 (11751479_a_at) / Fold change /veh CCDC152 (11751479_a_at) / RFU FAM211A (11726209_a_at) / Fold change /veh FAM211A (11726209_a_at) / RFU RGS16 (11746705_a_at) / Fold change /veh RGS16 (11746705_a_at) / RFU VCAN (11755009_s_at) / Fold change /veh VCAN (11755009_s_at) / RFU RHOB (11743442_s_at) / Fold change /veh RHOB (11743442_s_at) / RFU RGS16 (11720943_a_at) / Fold change /veh RGS16 (11720943_a_at) / RFU RGS16 (11720944_at) / Fold change /veh RGS16 (11720944_at) / RFU, VPS4B / Fold change vs veh, VPS4B / RFU, CREB1 / Fold change vs veh, CREB1 / RFU, DNAJC13 / Fold change vs veh, DNAJC13 / RFU, GNAQ / Fold change vs veh, GNAQ / RFU, CDK5R1 / Fold change vs veh, CDK5R1 / RFU, ZRANB3 / Fold change vs veh, ZRANB3 / RFU, CUL4A / Fold change vs veh, CUL4A / RFU, CCNY / Fold change vs veh, CCNY / RFU, UFL1 / Fold change vs veh, UFL1 / RFU, COG3 / Fold change vs veh, COG3 / RFU, DIAPH2 / Fold change vs veh, DIAPH2 / RFU, SKA2 / Fold change vs veh, SKA2 / RFU, AFF3 / Fold change vs veh, AFF3 / RFU, LMF1 / Fold change vs veh, LMF1 / RFU, IPO11 / Fold change vs veh, IPO11 / RFU, DFFB / Fold change vs veh, DFFB / RFU, FOXP1 / Fold change vs veh, FOXP1 / RFU, CARD8 / Fold change vs veh, CARD8 / RFU, STRN3 / Fold change vs veh, STRN3 / RFU, ADK / Fold change vs veh, ADK / RFU, RASSF2 / Fold change vs veh, RASSF2 / RFU, WIPF1 / Fold change vs veh, WIPF1 / RFU, LARP1B / Fold change vs veh, LARP1B / RFU, RASA1 / Fold change vs veh, RASA1 / RFU, RB1 / Fold change vs veh, RB1 / RFU, PPFIA1 / Fold change vs veh, PPFIA1 / RFU, MAT2A / Fold change vs veh, MAT2A / RFU, CCT5 / Fold change vs veh, CCT5 / RFU, WDR92 / Fold change vs veh, WDR92 / RFU, CUX1 / Fold change vs veh, CUX1 / RFU, TTC7A / Fold change vs veh, TTC7A / RFU, TMEM135 / Fold change vs veh, TMEM135 / RFU, DEPTOR / Fold change vs veh, DEPTOR / RFU, CPM / Fold change vs veh, CPM / RFU, DNAJB6 / Fold change vs veh, DNAJB6 / RFU, CACNA2D3 / Fold change vs veh, CACNA2D3 / RFU, DTX4 / Fold change vs veh, DTX4 / RFU, TFCP2 / Fold change vs veh, TFCP2 / RFU, GMCL1 /// GMCL1P1 / Fold change vs veh, GMCL1 /// GMCL1P1 / RFU, AEBP2 / Fold change vs veh, AEBP2 / RFU, SNHG1 /// SNORD22 /// SNORD25 /// SNORD26 /// SNORD27 /// SNORD28 /// SNORD29 /// SNORD31 / Fold change vs veh, SNHG1 /// SNORD22 /// SNORD25 /// SNORD26 /// SNORD27 /// SNORD28 /// SNORD29 /// SNORD31 / Fold change (Aza/veh), C12orf56 (ProbeSet 11735607_a_at) / Fold change (ACY-1035/veh), C12orf56 (ProbeSet 11735607_a_at) / Fold change (Aza/veh), FGFR1OP (ProbeSet 11751329_s_at) / Fold change (ACY-1035/veh), FGFR1OP (ProbeSet 11751329_s_at) / Fold change (Aza/veh), VPS36 (ProbeSet 11739960_a_at) / Fold change (ACY-1035/veh), VPS36 (ProbeSet 11739960_a_at) / RFU SYPL1 (11715823_x_at) / Fold change /veh SYPL1 (11715823_x_at) / RFU IGFBP7 (11715501_s_at) / Fold change /veh IGFBP7 (11715501_s_at) / RFU REEP3 (11722064_at) / Fold change /veh REEP3 (11722064_at) / RFU IGLL1 (11728026_x_at) / Fold change /veh IGLL1 (11728026_x_at): dose or concentration left out as unconfirmed
Conditions: ProbeSet 11753616_s_at; LIST B

With Nc1ccc(-c2cccs2)cc1NC(=O)c1ccc2c(c1)cc(C1CC1)n2CCN1CCOCC1 [ACY-1035] the “RFU, ARL8B” value was 236.78 RFU.
